Assays:
[1] = test system: Alopecurus myosuroides (ALOMY); test: Post-emergence glasshouse herbicide test; format: in vivo; conditions: post-emergence (sprayed after 8 days cultivation), 1000 g/h, evaluated after 13 days, five point scale
Summary of the method: (§1)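 Damage was rated 13 days after treatment on a five-point scale (1 = 0–19%, 5 = 80–100%). The compound, formulated in 50:50 acetone/water with 0.5% Tween 20, was sprayed at 1000 g/h on pots one day (pre) or 8 days (post) after sowing, kept in a glasshouse at 24/16° C, 14 h light, 65% humidity.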

[2] = test system: Amaranthus retoflexus (AMARE); test: Post-emergence glasshouse herbicide test; format: in vivo; conditions: post-emergence (sprayed after 8 days cultivation), 1000 g/h, evaluated after 13 days, five point scale
Summary of the method: as §1

[3] = test system: Echinochloa crus-galli (ECHCG); test: Post-emergence glasshouse herbicide test; format: in vivo; conditions: post-emergence (sprayed after 8 days cultivation), 1000 g/h, evaluated after 13 days, five point scale
Summary of the method: as §1

[4] = test system: Ipomoea hederacea (IPOHE); test: Post-emergence glasshouse herbicide test; format: in vivo; conditions: post-emergence (sprayed after 8 days cultivation), 1000 g/h, evaluated after 13 days, five point scale
Summary of the method: as §1

Setaria faberi (SETFA) [5] = test: Post-emergence glasshouse herbicide test; format: in vivo; conditions: post-emergence (sprayed after 8 days cultivation), 1000 g/h, evaluated after 13 days, five point scale
Summary of the method: as §1

Solanum nigrum (SOLNI) [6] = test: Post-emergence glasshouse herbicide test; format: in vivo; conditions: post-emergence (sprayed after 8 days cultivation), 1000 g/h, evaluated after 13 days, five point scale
Summary of the method: as §1

[7] = test system: Alopecurus myosuroides (ALOMY); test: Pre-emergence glasshouse herbicide test; format: in vivo; conditions: pre-emergence (sprayed after one day cultivation), 1000 g/h, evaluated after 13 days, five point scale
Summary of the method: as §1

[8] = test system: Amaranthus retoflexus (AMARE); test: Pre-emergence glasshouse herbicide test; format: in vivo; conditions: pre-emergence (sprayed after one day cultivation), 1000 g/h, evaluated after 13 days, five point scale
Summary of the method: as §1

[9] = test system: Echinochloa crus-galli (ECHCG); test: Pre-emergence glasshouse herbicide test; format: in vivo; conditions: pre-emergence (sprayed after one day cultivation), 1000 g/h, evaluated after 13 days, five point scale
Summary of the method: as §1

[10] = test system: Ipomoea hederacea (IPOHE); test: Pre-emergence glasshouse herbicide test; format: in vivo; conditions: pre-emergence (sprayed after one day cultivation), 1000 g/h, evaluated after 13 days, five point scale
Summary of the method: as §1

Setaria faberi (SETFA) [11] = test: Pre-emergence glasshouse herbicide test; format: in vivo; conditions: pre-emergence (sprayed after one day cultivation), 1000 g/h, evaluated after 13 days, five point scale
Summary of the method: as §1

Solanum nigrum (SOLNI) [12] = test: Pre-emergence glasshouse herbicide test; format: in vivo; conditions: pre-emergence (sprayed after one day cultivation), 1000 g/h, evaluated after 13 days, five point scale
Summary of the method: as §1

melting point	Structure (SMILES)	percentage damage caused to the plant, POST Application ALOMY [1]	percentage damage caused to the plant, POST Application AMARE [2]	percentage damage caused to the plant, POST Application ECHCG [3]	percentage damage caused to the plant, POST Application IPOHE [4]	percentage damage caused to the plant, POST Application SETFA (Setaria faberi (SETFA) [5])	percentage damage caused to the plant, POST Application SOLNI (Solanum nigrum (SOLNI) [6])	percentage damage caused to the plant, PRE Application ALOMY [7]	percentage damage caused to the plant, PRE Application AMARE [8]	percentage damage caused to the plant, PRE Application ECHCG [9]	percentage damage caused to the plant, PRE Application IPOHE [10]	percentage damage caused to the plant, PRE Application SETFA (Setaria faberi (SETFA) [11])	percentage damage caused to the plant, PRE Application SOLNI (Solanum nigrum (SOLNI) [12])
–	CSc1cnn(-c2ccc(Cl)cc2S(C)(=O)=O)c(=O)c1O [Compound 1.048]	1 (1=0-19%)	4 (4=60-79%)	3 (3=40-59%)	3 (3=40-59%)	2 (2=20-39%)	4 (4=60-79%)	1 (1=0-19%)	4 (4=60-79%)	3 (3=40-59%)	3 (3=40-59%)	2 (2=20-39%)	4 (4=60-79%)
–	CSc1cnn(-c2ccc(S(C)(=O)=O)c(C3=NOCC3)c2C)c(=O)c1O [Compound 1.018, 2-[3-(4,5-dihydroisoxazol-3-yl)-2-methyl-4-methylsulfonyl-phenyl]-4-hydroxy-5-methylsulfanyl-pyridazin-3-one]	2 (2=20-39%)	5 (5=80-100%)	2 (2=20-39%)	5 (5=80-100%)	2 (2=20-39%)	5 (5=80-100%)	2 (2=20-39%)	5 (5=80-100%)	2 (2=20-39%)	5 (5=80-100%)	2 (2=20-39%)	5 (5=80-100%)
–	Cc1c(-n2nccc(O)c2=O)ccc(S(C)(=O)=O)c1C1=NOCC1 [Compound 1.008]	5 (5=80-100%)	5 (5=80-100%)	5 (5=80-100%)	5 (5=80-100%)	5 (5=80-100%)	5 (5=80-100%)	2 (2=20-39%)	5 (5=80-100%)	5 (5=80-100%)	5 (5=80-100%)	5 (5=80-100%)	5 (5=80-100%)
–	Cc1nc(C(F)(F)F)ccc1-n1ncc([S+](C)[O-])c(O)c1=O (stereo not shown) [Compound 1.030]	2 (2=20-39%)	4 (4=60-79%)	5 (5=80-100%)	3 (3=40-59%)	5 (5=80-100%)	5 (5=80-100%)	2 (2=20-39%)	4 (4=60-79%)	5 (5=80-100%)	3 (3=40-59%)	5 (5=80-100%)	5 (5=80-100%)
144 to 147 °C	C=C(C)C1C=NN(c2ccc(C(F)(F)F)cc2S(C)(=O)=O)C(=O)C1=O (stereo not shown) [Compound 1.039, 4-Isopropenyl-1-[2-methylsulfonyl-4-(trifluoromethyl)phenyl]-4H-pyridazine-5,6-dione]	5 (5=80-100%)	5 (5=80-100%)	5 (5=80-100%)	5 (5=80-100%)	5 (5=80-100%)	5 (5=80-100%)	5 (5=80-100%)	5 (5=80-100%)	5 (5=80-100%)	5 (5=80-100%)	5 (5=80-100%)	5 (5=80-100%)

From patent US20140323300A1, “HERBICIDAL COMPOUNDS” (SYNGENTA LIMITED, priority 2011, published 2014)
